Laboratory results as given in PubChem BioAssay AID1963421 (Molecular Pharmacology Branch, DTP, NCI, 2024).

System: 519858-162-T-J1-PDC complex spheroid growth, % test/control
Assay: Anticancer human tumor 519858-162-T-J1-PDC patient-derived colon adenocarcinoma cell line growth inhibition [Asc]
Details: for IC50: curve of first compound; for viability, T/C: stronger effect = lower value
Summary of the method: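 Spheroid model: tumor line + HUVEC + hMSC. Single agents and combinations; top conc. at/near clinical Cmax (10 microM if undetermined), half-log dilutions. DMSO stocks at 800-fold test concentration.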
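Also: seven day drug exposure begun three days after spheroid seeding.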
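For viability, T/C in this document: 100% = DMSO vehicle wells and lower values mean less viable spheroid.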

Cc1nc(N2CCC3(CC2)COC(C)C3N)c(CO)nc1Sc1ccnc(N)c1Cl (configuration not stated) + CNC(C)C(=O)NC1CN(S(=O)(=O)c2cccc(S(=O)(=O)N3CCC4CCC(C(=O)NC(c5ccccc5)c5ccccc5)N4C(=O)C(NC(=O)C(C)NC)C3)c2)CCC2CCC(C(=O)NC(c3ccccc3)c3ccccc3)N2C1=O
IC50 (second compound 0.00316 µM): > 3 µM | IC50 (second compound 0.01 µM): > 3 µM | IC50 (second compound 0.0316 µM): > 3 µM | IC50 (second compound 0.1 µM): > 3 µM | IC50 (second compound 0.316 µM): > 3 µM | IC50 (second compound 1 µM): > 3 µM | viability, T/C (second compound 0.00316 µM, first compound 0.00949 µM): 112% | viability, T/C (second compound 0.00316 µM, first compound 0.03 µM): 91.2% | viability, T/C (second compound 0.00316 µM, first compound 0.0949 µM): 91.2% | viability, T/C (second compound 0.00316 µM, first compound 0.3 µM): 62.1% | viability, T/C (second compound 0.00316 µM, first compound 0.949 µM): 62.1% | viability, T/C (second compound 0.00316 µM, first compound 3 µM): 71.1% | viability, T/C (second compound 0.01 µM, first compound 0.00949 µM): 100% | viability, T/C (second compound 0.01 µM, first compound 0.03 µM): 120% | viability, T/C (second compound 0.01 µM, first compound 0.0949 µM): 102% | viability, T/C (second compound 0.01 µM, first compound 0.3 µM): 68% | viability, T/C (second compound 0.01 µM, first compound 0.949 µM): 55.3% | viability, T/C (second compound 0.01 µM, first compound 3 µM): 61% | viability, T/C (second compound 0.0316 µM, first compound 0.00949 µM): 83.8% | viability, T/C (second compound 0.0316 µM, first compound 0.03 µM): 91.4% | viability, T/C (second compound 0.0316 µM, first compound 0.0949 µM): 96.8% | viability, T/C (second compound 0.0316 µM, first compound 0.3 µM): 81.5% | viability, T/C (second compound 0.0316 µM, first compound 0.949 µM): 84.5% | viability, T/C (second compound 0.0316 µM, first compound 3 µM): 60.8% | viability, T/C (second compound 0.1 µM, first compound 0.00949 µM): 87.7% | viability, T/C (second compound 0.1 µM, first compound 0.03 µM): 84.5% | viability, T/C (second compound 0.1 µM, first compound 0.0949 µM): 87.7% | viability, T/C (second compound 0.1 µM, first compound 0.3 µM): 72.6% | viability, T/C (second compound 0.1 µM, first compound 0.949 µM): 74.5% | viability, T/C (second compound 0.1 µM, first compound 3 µM): 64.8% | viability, T/C (second compound 0.316 µM, first compound 0.00949 µM): 96.9% | viability, T/C (second compound 0.316 µM, first compound 0.03 µM): 85.3% | viability, T/C (second compound 0.316 µM, first compound 0.0949 µM): 82.1% | viability, T/C (second compound 0.316 µM, first compound 0.3 µM): 71.4% | viability, T/C (second compound 0.316 µM, first compound 0.949 µM): 42.8% | viability, T/C (second compound 0.316 µM, first compound 3 µM): 64.2% | viability, T/C (second compound 1 µM, first compound 0.00949 µM): 103% | viability, T/C (second compound 1 µM, first compound 0.03 µM): 80.8% | viability, T/C (second compound 1 µM, first compound 0.0949 µM): 69.4% | viability, T/C (second compound 1 µM, first compound 0.3 µM): 74.5% | viability, T/C (second compound 1 µM, first compound 0.949 µM): 92.5% | viability, T/C (second compound 1 µM, first compound 3 µM): 75.7%
